In data set [1] the test system is A549 cells. Put plainly: Comet assay. It counts as cell-based, human. The note with it: A549, 1, 8, and 12 h. The protocol: Residual DNA damage was detected by alkaline single cell gel electrophoresis (Comet Assay) using the Trevigen Comet Assay Kit (Trevigen, Gaithersburg, MD, USA) following the manufacturer’s protocol with slight modifications. […] The treated cells were trypsinized and pelleted by centrifugation. The cell pellets were washed and resuspended in 2 mL of ice-cold PBS. The cell suspension was mixed 1:10 (vol/vol) with low-melting point agar at 42 °C and immediately pipetted onto a CometSlide™. Slides were incubated at 4 °C in the dark for 30 min, immersed in chilled lysis solution and incubated again at 4 °C for 30 min. Slides were placed in a horizontal electrophoresis chamber and electrophoresed with buffer NaOH (0.3 M) and EDTA (1 mM) at 1 V/cm for 15 min. Samples were dried and stained with Vista Green DNA dye (Cell Biolabs, Singapore). Comet tails were imaged using a model DM 2500 fluorescent microscope (Leica, Wetzlar, Germany) and quantified by Komet 5.5 software (Andor Technology, Belfast, UK). A minimum of 50 cells were scored per treatment. All experiments were performed independently in triplicate.

Data set [2] deals with HeLa: human cervical cancer cell lines. The data set can be described thus: WST-1 cell viability, HeLa. It counts as cell-based. As to conditions: HeLa (cervical) cancer cell line. The text has this:
(§1) Different cells were utilized as follows: MEF: murine embryonic fibroblast (RRID: CVCL_L690); AML12: mouse liver cell lines (RRID: CVCL_0140); WI-38: human lung fibroblast cell lines (RRID: CVCL_0579); THLE-2: human liver epithelial cell lines (RRID: CVCL_3803); A549: human lung cancer cell lines (RRID: CVCL_0023); HEPG2: human liver cancer cell lines (RRID: CVCL_0027); HEP3B: human hepatoma cell lines (RRID: CVCL_0326); BxPC3: human pancreatic cancer cell lines (RRID: CVCL_0186); U87: human primary glioblastoma cell lines (RRID: CVCL_0022); DU145: human prostate cancer cell lines (RRID: CVCL_0105); MCF7: human breast cancer cell lines (RRID: CVCL_0031); HeLa: human cervical cancer cell lines (RRID: CVCL_0030); HCT116: human colon cancer cell lines (RRID: CVCL_0291). Cells were maintained in Dulbecco’s modified Eagle’s medium (DMEM, Gibco) supplemented with L-glutamine (Lonza) (2 mM), 10% fetal bovine serum (FBS, Hyclone), 1 × non-essential amino acids, and sodium pyruvate (1 mM). THLE-2 cells were maintained in THLE-2 Cell Complete Medium (Zhong Qiao Xin Zhou, Shanghai, China). Cells were incubated at 37 °C in a humidified incubator with 5% CO2. […]
(§2) Cell viability was assessed using the WST-1 assay, based on a previously reported method with slight modifications. […] Absorbance at OD450 was measured using a microplate reader (Synergy H1; BioTek Instruments, Winooski, VT, USA).
Background: Formazan colour is commonly taken as a measure of viable cells.

The test system of data set [3] is A549 cells. Put plainly: DNA fragmentation analysis (genomic DNA electrophoresis). It counts as cell-based, human. The note with it: A549, 24 h; JH62 5–100 µM, DOX 1 and 5 μM. How it is done:
Genomic DNA fragmentation was analyzed by agarose gel electrophoresis using previously described methods. A549 cells were seeded in 6 cm tissue culture dishes and cultured overnight. Before treatment with JH62 or DOX, the cells were cultured in DMEM lacking FBS for 16 h. After treatment, the cells were then washed three times with PBS and genomic DNA was extracted using a MasterPure™ DNA Purification Kit (Lucigen Corporation, Middleton, WI, USA). The DNA pellet was airdried and resuspended in Tris-HCl (pH 8.0, 10 mM). DNA samples (2.5 μg) were separated by 1% agarose gel electrophoresis in TAE buffer containing ethidium bromide.

Data set [4] concerns A549 injected xenograft mouse model. The data set can be described thus: Tumorigenicity assay, xenograft mouse model. It counts as in vivo, BALB/c nude mice. How it is done:
Tumorigenicity assays were performed using BALB/c nude mice, adapted from previously described protocols with slight modifications. To establish the xenograft cancer model, cancer cells (1 × 10^6) were subcutaneously injected into the right dorsal side of 6-week-old male BALB/c nude mice to induce tumor formation. The mice were randomly divided into 2 groups (n = 15). One group served as the control, and the other groups were treated with JH62 at doses of 10 mg/kg, via intraperitoneal injection twice a week. The mice in the control group were administered an equal volume of DMSO as the solvent control. The tumor sizes were measured weekly for three weeks. After that, the mice were sacrificed, and the tumors were isolated and weighed. All animal studies were approved by the Ethics Committee of South China Agricultural University.
To evaluate the efficacy of JH62 in inhibiting tumorigenesis in vivo, a cancer xenograft model was established by transplanting cancer cells into the right flank of nude mice. The mice were treated with JH62 (10 mg/kg body weight) twice weekly for three weeks, and tumor volume changes were regularly monitored during this period. […] After 20 days of treatment, the average weight of solid tumors in the JH62-treated group was 186.3 mg, compared to 693.4 mg in the control group. The average tumor size in the control group was approximately 900 mm^3, while in the JH62-treated group, it was only about 190 mm^3 (Figure 2H,I).

For data set [5], the system named is A549: human lung cancer cell lines. The data set can be described thus: WST-1 cell viability, A549. Format: cell-based. As to conditions: for IC50: WST-1; for reduced viability: 24 h. The text has this: Different cells were utilized as follows: MEF: murine embryonic fibroblast (RRID: CVCL_L690); AML12: mouse liver cell lines (RRID: CVCL_0140); WI-38: human lung fibroblast cell lines (RRID: CVCL_0579); THLE-2: human liver epithelial cell lines (RRID: CVCL_3803); A549: human lung cancer cell lines (RRID: CVCL_0023); HEPG2: human liver cancer cell lines (RRID: CVCL_0027); HEP3B: human hepatoma cell lines (RRID: CVCL_0326); BxPC3: human pancreatic cancer cell lines (RRID: CVCL_0186); U87: human primary glioblastoma cell lines (RRID: CVCL_0022); DU145: human prostate cancer cell lines (RRID: CVCL_0105); MCF7: human breast cancer cell lines (RRID: CVCL_0031); HeLa: human cervical cancer cell lines (RRID: CVCL_0030); HCT116: human colon cancer cell lines (RRID: CVCL_0291). Cells were maintained in Dulbecco’s modified Eagle’s medium (DMEM, Gibco) supplemented with L-glutamine (Lonza) (2 mM), 10% fetal bovine serum (FBS, Hyclone), 1 × non-essential amino acids, and sodium pyruvate (1 mM). THLE-2 cells were maintained in THLE-2 Cell Complete Medium (Zhong Qiao Xin Zhou, Shanghai, China). Cells were incubated at 37 °C in a humidified incubator with 5% CO2. A549 cells were previously stored in the lab and other cell lines were a gift from Haishan Wang’s lab (Institute of Molecular and Cell Biology, Singapore). All cell lines were confirmed to be contamination-free.
Cell viability was assessed using the WST-1 assay, based on a previously reported method with slight modifications. Briefly, cells were seeded at 1 × 10^4 cells per well in 96-well plates and then treated with different doses of JH62 or DOX for 0–72 h. The cells used included non-cancer cells (MEF, AML12, WI-38, and THLE-2) and cancer cells (A549, HEPG2, HEP3B, BxPC3, U87, DU145, MCF7, HeLa, and HCT116). The WST-1 reagent (Roche, Shanghai, China) was added to each well (10% vol/vol final concentration), followed by incubation for 3 h at 37 °C. Absorbance at OD450 was measured using a microplate reader (Synergy H1; BioTek Instruments, Winooski, VT, USA).

For data set [6], the system named is HEPG2: human liver cancer cell lines. The data set can be described thus: WST-1 cell viability, HEPG2. Format: cell-based. As to conditions: HEPG2 (liver) cancer cell line.
Excerpt: as §1, §2

Data set [7] concerns AML12: mouse liver cell lines. The data set can be described thus: WST-1 cell viability, AML12. The note with it: AML12, non-cancer cell line. Format: cell-based.
Excerpt: as §1, §2

For orientation: IC50 means the concentration that inhibits the measured activity by half. As to `CCCCCCCC/C=C/CCCc1cc(=O)c2ccccc2[nH]1` [JH62, E-2-(tridec-4-en-1-yl)-quinolin-4(1H)-one], the comet tail analysis result with A549 cells [1] was “maintenance of DNA integrity”. The IC50 worked out at 13.6 ± 2.7 µM in data set [2]; 14.8 ± 0.1 µM in data set [5] (A549 (lung) cancer cell line); 15 µM in data set [5] (Homo sapiens, A549, A549 (lung) cancer cell line); 17.2 ± 0.6 µM in data set [6]; 37.1 ± 0.7 µM in data set [7]. In addition, the “genomic DNA integrity (electrophoresis)” value in the data set with A549 cells [3] is on record as “genomic DNA integrity remained unchanged”. Besides, the “average weight of solid tumors” value in data set [4] (10 mg/kg intraperitoneal twice weekly, after 20 days of treatment, control 693.4 mg) stood at 186.3 mg. The average tumor size entry in data set [4] (10 mg/kg intraperitoneal twice weekly, three weeks, control approximately 900 mm^3) was “about 190 mm^3”. The reduced tumor volume in data set [4] (xenograft mice, 10 mg/kg) came out at 79%. In data set [4] (xenograft mice, 10 mg/kg), this compound showed a reduced tumor weight of 73%. The reduced viability in data set [5] (A549, 12.5 μM) was 20%; in data set [5] (A549, 25 μM), 48%; in data set [5] (A549, 50 μM), 78%. In addition, the viability decreased in data set [5] (A549, 12.5 μM, 32 h) was 32%; in data set [5] (A549, 12.5 μM, 48 h), 19%; in data set [5] (A549, 25 μM, 32 h), 65%; in data set [5] (A549, 25 μM, 48 h), 74%; in data set [5] (A549, 50 μM, 32 h), 84%; in data set [5] (A549, 50 μM, 48 h), 92%.
